Laboratory results as given in the NIST ThermoML archive (doi:10.1016/j.jct.2007.11.010).
Numbers after ± are expanded uncertainties.

Settings: 101.33 kPa, Liquid

OCCN1CCOCC1 [4-morpholineethanol]
mass density (293.15 K): 1076.58 ± 0.97 kg/m3 | mass density (298.15 K): 1071.3 ± 0.94 kg/m3 | mass density (303.15 K): 1066.51 ± 0.92 kg/m3 | mass density (313.15 K): 1059.19 ± 0.88 kg/m3 | mass density (323.15 K): 1052.64 ± 0.84 kg/m3

CCCCO [butan-1-ol]
mass density (293.15 K): 809.52 ± 0.46 kg/m3 | mass density (298.15 K): 805.88 ± 0.47 kg/m3 | mass density (303.15 K): 801.99 ± 0.47 kg/m3 | mass density (313.15 K): 794.34 ± 0.48 kg/m3 | mass density (323.15 K): 786.67 ± 0.5 kg/m3

CCC(C)O (stereo not given) [butan-2-ol]
mass density (293.15 K): 805.56 ± 1.3 kg/m3 | mass density (298.15 K): 802.43 ± 1.4 kg/m3 | mass density (303.15 K): 797.76 ± 1.4 kg/m3 | mass density (313.15 K): 790.11 ± 1.4 kg/m3 | mass density (323.15 K): 784.92 ± 1.4 kg/m3

CCO [ethanol]
mass density (293.15 K): 788.33 ± 0.49 kg/m3 | mass density (298.15 K): 784.97 ± 0.5 kg/m3 | mass density (303.15 K): 780.72 ± 0.5 kg/m3 | mass density (313.15 K): 772.61 ± 0.52 kg/m3 | mass density (323.15 K): 764.14 ± 0.53 kg/m3

CCCO [propan-1-ol]
mass density (293.15 K): 803.56 ± 0.47 kg/m3 | mass density (298.15 K): 799.71 ± 0.48 kg/m3 | mass density (303.15 K): 795.58 ± 0.48 kg/m3 | mass density (313.15 K): 787.34 ± 0.49 kg/m3 | mass density (323.15 K): 778.97 ± 0.51 kg/m3

CC(C)O [propan-2-ol]
mass density (293.15 K): 785.18 ± 0.5 kg/m3 | mass density (298.15 K): 781.31 ± 0.5 kg/m3 | mass density (303.15 K): 776.66 ± 0.51 kg/m3 | mass density (313.15 K): 767.83 ± 0.52 kg/m3 | mass density (323.15 K): 758.71 ± 0.54 kg/m3
